Here are results for eleven compounds from patent US8124359B2, “Use of additives for the reduction of non-specific binding in assays” (Aokin AG, priority 2006, dated 2012).

Where a name gives a salt, the structure may show the parent alone.

In assay [1] the test system is anti-thyroxine. Description: Kinetic curve, rhodamine-labeled thyroxine/anti-thyroxine system in 0.5 M sodium benzoate with 5% isopropanol (Example 5). The format is binding. The procedure:
The protocol used is described below. The additive was sodium benzoate combined with an organic solvent (5% isopropanol). • 1. Use clean glassware, washed with isopropanol. • 2. Make a 0.5 M solution of sodium benzoate. • 3. Make a solution of 5% isopropanol in 0.5 M sodium benzoate (i.e., 2.5 ml 2-propanol in 47.5 mL 0.5 M aqueous sodium benzoate). This will be named BUFFER. • 4. […] 600 μl Buffer added to 1 mL curvette. The absorbance spectrum is measured using a UV-VIS spectrophotometer, 400 nm to 800 nm. This spectrum is used to define the absorbance of the background as zero and to control that it is actually zero. • 6. […] Measure the absorbance UV-VIS, 400 nm to 800 nm. […] Using a rotating polarometer with a 75 watt Xenon short-arc lamp. The rotating polarizer has three channels: Polarization (P), Total Intensity (V+H), and V−H. • 8. […] Measure P, V+H and V−H after short mixing and 30 second equilibration. […] Add 10 μl. Antibody solution (anti-thyroxine in PBS, dilution unknown, probably 5 mg in 1000 μl PBS and further diluted 1:10 in PBS). New volume is 3017 μl. Measure P, V+H and V−H after short mixing.

For assay [2], the system named is anti-thyroxine. Description: Velocity of the reaction between F-thyroxine and anti-thyroxine in the presence of BSA (Examples 8-16). The class given is binding. To be noted: BSA 0.1 μM, increasing additive concentrations. On the procedure:
(§1) The buffer and stock solutions described in Example 1 and the measurement methodology described in Example 2 were used.
• Fluorescein-Thyroxine, 1 nM • Anti-Thyroxine (1:300) • PBS with 5% 2-propanol • BSA 0.1 μM • Sodium benzoate in different concentrations
• Fluorescein-Thyroxine, 1 nM • Anti-Thyroxine (1:300) • PBS with 5% 2-propanol • BSA 0.1 μM • Sodium p-toluene sulfonate in different concentrations
• Fluorescein-Thyroxine, 1 nM • Anti-Thyroxine (1:300) • PBS with 4.75% 2-propanol • BSA 0.1 μM • Potassium benzoate in different concentrations
• Fluorescein-Thyroxine, 1 nM • Anti-Thyroxine (1:300) • PBS with 4.75% 2-propanol • BSA 0.1 μM • Sodium chloroacetate in different concentrations
• Fluorescein-Thyroxine, 1 nM • Anti-Thyroxine (1:300) • PBS with 4.75% 2-propanol • BSA 0.1 μM • Sodium dichloroacetate in different concentrations
[…]. The buffer and stock solutions described in Example 1 and the measurement methodology described in Example 2 were used.
• Fluorescein-Thyroxine, 1.5 nM • Anti-Thyroxine (1:300) • PBS with 4.75% 2-propanol • BSA 0.1 μM • Sodium Salicylate in different concentrations
• Fluorescein-Thyroxine, 1.5 nM • Anti-Thyroxine (1:300) • PBS with 4.75% 2-propanol • BSA 0.1 μM • N-Hydroxysuccinimide in different concentrations
• Fluorescein-Thyroxine, 1.5 nM • Anti-Thyroxine (1:300) • PBS with 4.75% 2-propanol • BSA 0.1 μM • Sodium Chloride in different concentrations

Assay [3] has as its system polyclonal anti-thyroxine sera. Description: Fluorescence polarization kinetic measurement, F-thyroxine/anti-thyroxine system (Example 3). To be noted: Experiment 5: unlabeled thyroxine 0-20 μl, antiserum 20 μl, Buffer 1 (0.5 M sodium benzoate). The class given is binding. The procedure:
An initial stock solution of anti-thyroxine sera was prepared. In particular, 1 ml of polyclonal anti-thyroxine sera containing 10 mg/ml IgG (Sigma) was diluted 1:5 in PBS buffer, pH 7.5. The final concentration of IgG in the stock solution was about 2 mg/ml.
An initial stock solution of fluorescein-labeled analyte (F-thyroxine) was prepared. Fluorescein-labeled thyroxine at 1248 g/mol in a lyophilized form was obtained from emp Biotech GmbH. First, 5 mg (4×10^−6 moles) of F-thyroxine was diluted to 10 ml in PBS to get a 4.1×10^−4 M solution of F-thyroxine. This solution was then further diluted 100-fold in PBS. The final concentration of F-thyroxine in the stock solution was about 4.1×10^−6 M.
The following is a protocol useful for performing a fluorescein polarization assay of the present invention. All steps are performed at ambient temperature. […] Pipette the mixture formed in step 5 up and down for 1 to 10 seconds and begin measuring polarization (P), Polarized Fluorescence Intensity Difference (V−H) or quenching (V+H total intensity) versus time for between 10 and 7200 seconds after end of mixing in a direct readout polarometer or between 0.1 and 7200 seconds after end of mixing with a stopped-flow polarometer. • 7. […] Against a standard curve, an unknown amount of thyroxine can be measured by comparison of initial rate measurement (speed of reaction) of unknown with the standard curve. […]
(Polarisation of emitted light reports the rotation of a fluorescent probe.)

The subject of assay [4] is human sera. Description: Effect of additive on non-specific binding of F-thyroxine in human sera (Example 4). Particulars: Buffer 2 (1.0 M sodium benzoate), 50 μl human sera. On the procedure:
(§2) With reference to FIG. 2, experiments were performed to determine the effects of an additive on specific and non-specific binding. The additive used in the present example was sodium benzoate. The materials described in Example 1 and the measurement methodology described in Example 2 were used. In particular, 50 μl of human sera was added to 3000 μl of Buffer 2 or PBS at pH 7.5 (no additive control) and thoroughly mixed by pipetting for 1 to 10 seconds. To this was added 0 μl of unlabeled thyroxine and 0 μl, 20 μl or 50 μl of anti-sera stock solution. The mixture was thoroughly mixed by pipetting for 1 to 10 seconds. Then, 5 μl of the fluorescein-labeled thyroxine stock solution was added. This was followed by mixing for 1 to 10 seconds by pipetting. Then, d(V−H)/dt measurements were made versus time for between 10 and 600 seconds. This protocol was followed for Experiments 6-9 in Table 2.

For assay [5], the system named is serum components. The experiment in a line: Non-specific binding of Rhodamine-Thyroxine to serum components (Example 17). Particulars: Rox-Thyroxine 1.5 nM, serum 1:500, PBS with 10% 2-propanol, sodium benzoate in different concentrations. On the procedure:
(§3) The serum was diluted 1:500 in PBS/10% 2-propanol The buffer and stock solutions, as well as the measurement methodology described in Example 5 were used.
(§4) • Rox-Thyroxine, 1.5 nM • Anti-Thyroxine (1:300) • PBS with 10% 2-propanol • Serum 1:500 • Sodium benzoate in different concentrations

For assay [6], the system named is anti-thyroxine. Description: Velocity of the reaction between F-thyroxine and anti-thyroxine in the absence of non-specific binding components (Example 7). To be noted: sodium benzoate increased to 1.0 molar; no serum or BSA; PBS with 5% 2-propanol, F-thyroxine 1 nM. On the procedure: as §1
• Fluorescein-thyroxine, 1 nM • Anti-Thyroxine (1:300) • PBS with 5% 2-propanol • Sodium Benzoate in different concentrations

Assay [7] has as its system anti-thyroxine sera. The experiment in a line: Effect of additive on specific binding of F-thyroxine to anti-thyroxine in the presence of human sera (Example 4). To be noted: Buffer 2 (1.0 M sodium benzoate), 50 μl human sera, 20 or 50 μl anti-sera. On the procedure: as §2
Assay [8] concerns anti-thyroxine. Description: Velocity of the reaction between Rhodamine-Thyroxine and anti-thyroxine in serum (Example 17). The format is binding. To be noted: Rox-Thyroxine 1.5 nM, serum 1:500, PBS with 10% 2-propanol, increasing sodium benzoate. On the procedure: as §3, §4
Assay [9] deals with serum components. Description: Initial non-specific binding between F-thyroxine and serum components (Example 6). To be noted: experiments 6-3 through 6-7: serum, increasing sodium benzoate up to 1.0 M; reduced from 195. The procedure: as §1
(§5) • Fluorescein-Thyroxine (1 nM) • Anti-Thyroxine (1:300 dilution) • PBS with 10% 2-propanol • Benzoate in different concentrations • At t=0 s antibody was pipetted into the cuvette. • A 3 ml cuvette was used, the total volume in the cuvette was 2 ml. A small magnetic stirrer was used for mixing
(§6) In example 6, the reactions between F-Thyroxine and Anti-Thyroxine, which were carried out in the presence of serum under different reaction conditions, are compared (FIG. 4). There are seven different amounts of sodium benzoate, between 0 and 1.0 Molar in the cuvette. The reaction was performed in a phosphate buffered saline buffer containing 10% 2-propanol. The table in FIG. 4 lists the two important parameters.

In assay [10] the test system is anti-thyroxine. The experiment in a line: Rate of the reaction between F-thyroxine and anti-thyroxine, with and without serum (Example 6). To be noted: experiments 6-3 through 6-7: serum, increasing sodium benzoate up to 1.0 M. The format is binding. The procedure:
as §1, §5, §6

Setting [11] is: PBS with 4.75% 2-propanol, F-thyroxine 1.5 nM.
[12] abbreviates: PBS with 5% 2-propanol, F-thyroxine 1 nM.
The mark [13] stands for this setting: PBS with 4.75% 2-propanol, F-thyroxine 1 nM.

Consider “5-carboxy-X-rhodamine-thyroxine [ROX-T4]”, for which, in assay [1] (0.5 M sodium benzoate, 5% isopropanol), the “values of P, V−H and V+H over the 600 second time course” value is “increase”. Moreover, the “V − H” value in [1] (10 s after antibody) stood at 660; in assay [1] (13 s after antibody) it was 860; in assay [1] (18 s after antibody) it was 936; in assay [1] (20 s after antibody), 1006; in [1] (26 s after antibody) it was 1130; in assay [1] (30 s after antibody), 1175. Further, the “V − H” value in [1] (33 s after antibody) amounted to 1200; in [1] (44 s after antibody), 1259; in assay [1] (49 s after antibody) it was 1280; in assay [1] (53 s after antibody) it was 1290; in assay [1] (78 s after antibody), 1345; in [1] (600 s after antibody), 1340. The “V − H” value in [1] (before antibody, time 0 s) worked out at 178. In addition, the “P (mP)” value in assay [1] (62 s after antibody) is 392 mP; in assay [1] (70 s after antibody), 395 mP; in [1] (95 s after antibody), 397 mP; in assay [1] (600 s after antibody) it was 398 mP; in assay [1] (before antibody, time 0 s) it was 75 mP. The “V + H” value in [1] (83 s after antibody) was 3375; in assay [1] (600 s after antibody), 3320; in assay [1] (before antibody, time 0 s), 2291.

For `O=C([O-])c1ccccc1O.[Na+]` [sodium salicylate], the “rate of the antibody reaction” value in assay [2] (setting [11]) is “substantially slowed”.

Regarding `Cc1ccc(S(=O)(=O)O)cc1.[Na]` [sodium p-tolulene sulfonate, sodium p-toluene sulfonate], in [2] (setting [12]), the “rate of the antibody reaction” value is “substantially slowed”.

As to `O=C([O-])c1ccccc1.[K+]` [potassium benzoate], the “rate of the antibody reaction” value in assay [2] (setting [13]) was “substantially slowed”.

As for `O=C1CCC(=O)N1O` [N-hydroxysuccinimide], the “rate of the antibody reaction” value in assay [2] (setting [11]) is “substantially slowed”.

With `N[C@@H](Cc1cc(I)c(Oc2cc(I)c(O)c(I)c2)c(I)c1)C(=O)O` [thyroxine], the “competitive inhibition of the binding of F-thyroxine to its specific antibody” value in assay [3] is “inhibition of the binding of F-thyroxine to its specific antibody by unlabeled thyroxine occurred”.

Regarding `O=C([O-])c1ccccc1.[Na+]` [sodium benzoate], the “rate of the antibody reaction” value in assay [2] (setting [12]) is on record as “substantially slowed”. For the same compound, the “effect on non-specific binding” value in assay [4] is “inhibits non-specific binding”. Besides, the “non-specific binding due to the presence of serum components” value in assay [5] is given as “substantially reduced”. The “reaction rate between F-thyroxine and antibody” value in assay [6] is on record as “slowed dramatically”. Further, the “effect on specific binding” value in [7] is “does not inhibit specific binding”. Moreover, in [8], the “rate of the reaction” value is recorded as “substantially slowed”. Moreover, the “polarization value before the addition of antibody (t=0)” value in assay [9] worked out at 100 mP. Moreover, the “reaction rate relative to its value at zero additive” value in assay [10] is given as “about 30%”. In addition, the “rate of change of P at t=5 s” value in [10] (PBS with 10% 2-propanol) was 3.2 mP/s.

Regarding `O=C([O-])CCl.[Na+]` [sodium chloroacetate], the “rate of the antibody reaction” value in [2] (setting [13]) is recorded as “substantially slowed”.

On to `N=C(N)N` [guanidine hydrochloride], for which, in assay [2] (setting [12]), the “rate of the antibody reaction” value is reported as “substantially slowed”.

Regarding `[Cl-].[Na+]` [sodium chloride], the “rate of the antibody reaction” value in assay [2] (setting [11]) was “not substantially slowed”.

Turning to `O=C([O-])C(Cl)Cl.[Na+]` [sodium dichloroacetate], the “rate of the antibody reaction” value in [2] (setting [13]) was “substantially slowed”.
